Data published in a melting point compilation (Tetko et al.; mined from patent text by program, amines drawn as free bases though some values may be those of a salt).

Row | melting point | SMILES
1 | 99 to 101 °C | Cc1noc(C)c1S(=O)(=O)N(C)c1ccc(Cl)cc1[N+](=O)[O-]
2 | 65 to 66 °C | COC(=O)c1cc([N+](=O)[O-])nn1C
3 | 196 to 199 °C | O=C1Nc2ccc(Br)cc2C12CCCCC2
4 | 128 to 130 °C | CCCC(C)(C)C(=O)Oc1ccc(C(=O)CNC(C)(C)C)cc1O
5 | 210 to 213 °C | CC1CN(c2c(F)cc3c(=O)c(C(=O)O)cn(C4CC4)c3c2Cl)CC1NC(=O)OC(C)(C)C (stereo not given)
6 | 74 °C | CC(C)Oc1nc(O)ns1
7 | 266 to 269 °C | Cc1cccc(C(=O)Nc2nc(=O)c3ccccc3n2C)c1
8 | 122 to 124 °C | CN(C)CCCC1(O)c2ccccc2CCc2c(C3(C)OCCO3)cccc21 (stereo not given)
9 | 128 to 129 °C | CCn1c(=O)c(Oc2ccc(F)cc2F)cc2cnc(S(C)(=O)=O)nc21
10 | 204 to 206 °C | CC1(C)OC(=S)N(c2cc(F)cc(C(F)(F)F)c2)c2ccccc21
11 | 206 to 209 °C | O=C(Cn1nnc2cccnc21)Nc1ccc(-n2nc(C(F)(F)F)cc2C2CC2)cc1
12 | 122 °C | CCC(=O)Nc1c(Cl)cnn1-c1ccc(Cl)c(Cl)c1Cl
13 | 191 °C | CCc1noc(-c2ccc(C)cc2)c1-c1ccc(S(N)(=O)=O)cc1
14 | 193 to 195 °C | O=C(O)COc1ccc2c(c1)CCc1sc(SC(c3ccccc3)c3ccccc3)nc1-2
15 | 209 to 211 °C | O=C(O)C1CCN2c3ccc(Cl)cc3Oc3ccccc3C2C1 (stereo not given)
16 | 114 to 115 °C | Fc1ccccc1/C=C/c1ccc(N(c2ccccc2)c2ccccc2)cc1
17 | 220 °C | COc1cnc(N2CCN(c3ccc(-n4c(C)nn(CC(=O)c5ccc(Cl)cc5)c4=O)cc3)CC2)nc1
18 | 52 to 53 °C | C(CCCN1CCCNC1)CCCN1CCCNC1
19 | 225 to 227 °C | COc1ccc(CNc2n[nH]c3ncnc(Nc4cccc(Cl)c4)c23)cc1O
20 | 220 to 223 °C | O=c1[nH]ncc(Cl)c1NCCN1CCN(c2cccc(C(F)(F)F)c2)CC1
21 | 147 to 149 °C | O=C1c2cscc2Nc2ccccc2N1C1C=CCCC1 (stereo not given)
22 | 203 to 204 °C | CCCOc1ccc(S(=O)(=O)N2CCC(C(=O)OCC)CC2)cc1-c1nc2cc(Cl)c([N+](=O)[O-])cc2c(=O)[nH]1
23 | 195 to 197 °C | COC(=O)C(Cc1ccc(O)cc1)NC(=O)C(Cc1ccccc1)NC(=O)c1ccc(OC)cc1 (stereo not given)
24 | 177 to 178 °C | CNC(=O)Nc1ccc(OCCCN2CCC(C(O)(c3ccc(F)cc3)c3ccc(F)cc3)CC2)cc1

Row | melting point | SMILES
25 | 112 to 114 °C | CC(=O)C(O)C1OC(n2cc(Br)c(=O)[nH]c2=O)CC1N=[N+]=[N-] (stereo not given)
26 | 55 to 58 °C | C=C(OCCCC)c1ccc(NC(C)=O)nc1
27 | > 240 °C | Cn1c(CN2C(=O)C3(COc4cc5c(cc43)OCCO5)c3ccccc32)nc2ccccc21 (stereo not given)
28 | 232 to 234 °C | Cc1cccc(-c2n[nH]cc2-c2ccnc(-c3ccc(S(C)(=O)=O)cc3)c2)n1
29 | 99 to 101 °C | CN1CCC=C(c2nsnc2SCCCC(=O)O)C1
30 | 92 to 93 °C | COc1cc(CCCCC2OC(=O)NC2=O)ccc1OCc1ccccc1 (stereo not given)
31 | 131 to 133 °C | CCC1(CCCCN2CCN(c3ccccn3)CC2)C(=O)Nc2ccccc21 (stereo not given)
32 | 125 to 127 °C | CCN(CC)c1cccc2nc3n(c12)CC(F)(F)CN3c1ccc(Cl)cc1Cl
33 | 108 to 110 °C | CC(=O)N1CCC(c2nccc3occc23)CC1
34 | 106 to 115 °C | CCN1C(=O)C(C)(C)C(=O)N(C)c2cc(CCCN(CCn3ccc4ccoc4c3=O)Cc3cccnc3C)ccc21
35 | 139 to 140 °C | Cc1cc2c(cc1C)C(C(F)(F)F)(C(F)(F)C(F)(F)F)c1cc(C)c(C)cc1O2
36 | 210 to 213 °C | Cc1cccc(C)c1N1C(=O)c2ccc(C(=O)O)cc2C1=O
37 | 86 to 87 °C | COC(=O)C1C=CCN2C(=O)C(C)(CCI)C(=O)N12 (stereo not given)
38 | 196 to 198 °C | COc1ccc(OC)c(S(=O)(=O)n2c(COC(C)C(=O)O)cc3cc(Cl)ccc32)c1 (stereo not given)
39 | 178 °C | O=C(N[C@H]1CC[C@H](CCN2CCN(c3nccc4c3CCO4)CC2)CC1)C1(O)CCC1
40 | 33 to 34 °C | CCCCCCCCCCCCCCCCCC#CC(C(=O)OCC)C(=O)OCC
41 | 47 to 48 °C | CCc1cc(Cl)c(N)c(Cl)c1
42 | 129 to 130 °C | CCCCCCCCCCCCCCCCCCOc1cc(SC)cc(N(CC(=O)O)CC(=O)O)c1
43 | 340 °C | CCn1c(CNc2ccncc2)nc2c(C#N)nc(-c3cccc(C(F)(F)F)c3)cc21
44 | 245 to 247 °C | COc1ccccc1NC(=O)Nc1nc(Nc2ccccc2-c2ccccc2)nc(N2CCCC(C(=O)O)C2)n1 (stereo not given)
45 | 172 to 173 °C | COC(=O)c1cc(OC)c(O)cc1-c1c(C(=O)OC)ccc2c1OCO2
46 | 195 to 197 °C | CN1CCN(CCC#Cc2cc3c(Nc4ccc5[nH]ccc5c4)c(C#N)cnc3s2)CC1
47 | 200 to 201 °C | NS(=O)(=O)c1c(Cl)cccc1CN1CCOC1=O
48 | 118 °C | C1=CCC2=C3C(=NC2=C1)SCCC3CNCc1ccccc1 (stereo not given)

Row | melting point | SMILES
49 | 85 to 87 °C | c1ccc(CN2CCC3(C2)OC(c2ccccc2)c2ccccc23)cc1 (stereo not given)
50 | 54 °C | C#Cc1cn(C2CC(F)C(COC(c3ccccc3)(c3ccccc3)c3ccccc3)O2)c(=O)[nH]c1=O (stereo not given)
51 | 50 °C | COc1cccc(CCNC(=O)Cc2cccs2)c1
52 | 157 to 159 °C | COc1cc2c3c(c1)c(=O)c(Cc1cccnc1)cn3-c1ccc(Br)cc1S2
53 | 199 to 200 °C | CC(C)(C)c1cc(Nc2ccc(C=CC(=O)O)cc2)cc(C(C)(C)C)c1O
54 | 152 to 156 °C | CC(=O)Oc1ccc(CC2SC(=O)N(C(c3ccccc3)(c3ccccc3)c3ccccc3)C2=O)cc1 (stereo not given)
55 | 237 to 239 °C | Cc1cccc(CNc2c(NC(C)(C)C)c(=O)c2=O)c1C
56 | 85 to 90 °C | CC(C)(C)NC(CO)c1cc(Cl)c(N)c(C(F)(F)F)c1 (stereo not given)
57 | 92 to 93 °C | OCCCCCCCCCCCc1ccc(O)c(O)c1
58 | 146 to 149 °C | BrCCCc1ncnn1C(c1ccccc1)(c1ccccc1)c1ccccc1
59 | 276 to 279 °C | CC(=O)Nc1ccc2c(c1)c(C1=C(c3cn(C)c4ccccc34)C(=O)NC1=O)cn2C
60 | 182 to 183 °C | CC(C)N1C(=O)NCc2c(-c3ccccc3)cccc21
61 | 128 to 129 °C | COC(=O)Cn1c(SCc2nccc(SCCN3CCOCC3)c2C)nc2ccccc21
62 | 253 to 254 °C | Cc1nc(-c2ccc3c(c2)c2cc(-c4ccc(Cl)cc4Cl)c(=O)n(C)c2n3C)cs1
63 | 155 to 158 °C | CCCn1c(=O)c2[nH]c(C3CCCO3)nc2n(CCC)c1=O (stereo not given)
64 | 77 to 78 °C | COC(=O)c1c(OC)ccc([N+](=O)[O-])c1OC
65 | 278 to 280 °C | CC(C)(CO)c1ccc(C(=O)Nc2cn3cc(-n4ccnc4)ccc3n2)cc1
66 | 118 to 119 °C | CCCCc1ncc(C=C2C(=O)N(CC(=O)OCC)c3ccccc32)n1Cc1ccc(C(=O)OC)cc1
67 | 206 to 207 °C | O=C1N(Cc2ncccc2C(F)(F)F)c2ccccc2C12COc1c2ccc2c1OCCO2 (stereo not given)
68 | 151 to 155 °C | CN(C)C1CCN(c2nc(N3CCOCC3)c3ncnc(N(CC(=O)O)Cc4ccccc4)c3n2)CC1
69 | 174 to 175 °C | CC(=O)Nc1nc2c(Oc3cc(-c4ccc(C(F)(F)F)cc4NC(=O)[C@@H]4CCN4CC(C)C)ncn3)cccc2s1
70 | 220 to 222 °C | COc1cc(Nc2c(C#N)cnc3cc(-c4ccc(CN5CCOCC5)cn4)ccc23)c(Cl)cc1Cl
71 | 286 to 288 °C | O=C(Nc1nc[nH]n1)c1ccc(-c2ccc3nnn(Cc4ccc5ncccc5c4)c3n2)cc1Cl
72 | 48 to 49 °C | C#CCCCOc1c(C)cc(C#N)cc1C

Row | melting point | SMILES
73 | 102 to 103 °C | CCCCC1NC(C(=O)OC)Cc2c1[nH]c1ccccc21 (stereo not given)
74 | 126 to 128 °C | COP(=O)(CC(O)c1c(C(C)C)nn(-c2ccccc2)c1-c1ccc(F)cc1)OC (stereo not given)
75 | 206 to 212 °C | CC[C@H](C)[C@@H](CO)NC(=O)C[C@H](O)[C@H](CC(C)C)NC(=O)[C@H](CC(C)C)NC(=O)[C@H](Cc1cccc2ccccc12)NC(=O)OCc1ccccc1
76 | 225 to 226 °C | Cc1cccc(C(=O)c2[nH]c3ccc(Cl)cc3c2CC(=O)O)n1
77 | 118 to 121 °C | O=C(O)c1c2c(nc3ccc(F)cc13)-c1ccc(C3CCCCC3)cc1CC2
78 | 300 to 301 °C | COc1ccccc1-c1cc2cnc(N)nc2nc1NC(=O)NC(C)(C)C
79 | 154 to 155 °C | COc1cccc2c1nc(-c1c(F)cccc1F)n2Cc1c(F)cccc1F
80 | 96 to 97 °C | C#CCC(C(=COC)c1cccnc1)c1ccc(Cl)cc1Cl (stereo not given)
81 | 143 to 146 °C | COCCC1(C(=O)N[C@@H](Cc2ccc(N3C(=O)c4ccc(C#N)cc4C3=O)cc2)C(=O)O)CCCC1
82 | 343 to 345 °C | O=c1[nH]c2cc(Br)ccc2c(O)c1-c1ccccc1
83 | 190 to 193 °C | O=C(Cc1cccc(O)c1)NNC(=O)c1ccc(O)c([N+](=O)[O-])c1
84 | 211 to 213 °C | O=c1ccc(-c2ccc(OC3CCN(C4CCCC4)CC3)cc2)n[nH]1
85 | 110 to 114 °C | CC(C)c1ccc(N(Cc2cnn(CCO)c2)C(=O)C2CCCc3c(O)cccc32)cc1 (stereo not given)
86 | 58 to 59 °C | COC(=O)c1cc(N=Cc2ccccc2)ccc1O
87 | 166 to 167 °C | CC1CC(=O)C(C(=O)c2ccc(S(C)(=O)=O)cc2[N+](=O)[O-])C(=O)C1(C)C (stereo not given)
88 | 80 to 81 °C | COc1ccc2cc([C@H](C)C(=O)OCC(=O)N(C)CCO[N+](=O)[O-])ccc2c1
89 | 188 to 191 °C | O=C(Nc1ccc(F)c(C(F)(F)F)c1)N1COc2cc(Oc3cc(Cl)ncn3)ccc21
90 | 163 to 165 °C | O=C(NNc1ccc(C(F)(F)F)cc1)c1ccccc1F
91 | 208 to 211 °C | CCc1cn2c(=O)c(C#N)cnc2c2ccccc12
92 | 149 to 150 °C | COc1cc(-c2nc(=O)c3ccccc3s2)ccn1
93 | 83.5 to 86.2 °C | CCOCCNC(=O)C(c1ccccc1)c1ccccc1

Row | SMILES | melting point
94 | Cc1nc2c(C)cccn2c(=O)c1CCN1CC=C(c2c[nH]c3ccc(F)cc23)CC1 | 229 to 230 °C
95 | COC(=O)c1ccc(-c2ccc(-c3cn([C@H]4CN5CCC4CC5)nn3)s2)cc1Cl | 200 °C
